Measurements: patent US20220087960A1, “Oral Pharmaceutical Immediate Release Composition” (Aardvark Therapeutics Inc., priority 2020, published 2022)
Where two headings read alike, the source gives them in different places.

Tests used:
rodent obesity models = settings: cited from earlier work
male SD rats = test: Single oral dose food intake study, 24-hour observational period (Example 6, first in vivo study); parameters: species or system rat
Procedure: This example compares efficacy of DA versus DB in food inhibition and body weight control. As a background, according to Avau et al., Sci. Rep. […] In our first in vivo study, 45 male SD rats (purchased from Envigo at 8-10 weeks of age) were divided into three groups (15 in each group), which were administered a single oral dose of vehicle (distilled water), 26.8 mg/kg of DB, or 23.1 mg/kg of DA respectively, with a 24-hour observational period, to compare the efficacy of DB versus DA in reducing food intake. Table 4. Mean cumulative food intake during 24-h observational period

normal C57BL/6 mice = settings: oral 60 μmol/kg (26.8 mg/kg); cited from earlier work
male C57BL/6N DIO mice = test: 56-day BID treatment, food consumption and body weight in DIO mice (Example 6, second in vivo study); parameters: species or system mouse
Procedure: In a second in vivo study, 45 male C57BL/6N DIO mice (purchased from Envigo at 18 weeks of age, fed with high-fat diet) were divided into three groups (15 in each group), which were orally administered vehicle (distilled water), 26.8 mg/kg of DB, or 23.1 mg/kg of DA respectively, twice daily (BID), with a 56-day treatment period to compare the efficacy of DB versus DA in food intake reduction and body weight control. Briefly, once weekly, the food weight for each cage was recorded at 0 hour and then 24 hours later, permitting calculation of food consumption for that 24-hour interval. In addition, starting from Day 0, the mice were weighed three times weekly (every 2-3 days).

C57BL/6 DIO mice = settings: 60 μmol/kg (26.8 mg/kg) once daily, 28-day period; cited from earlier work
healthy volunteers = settings: intragastric administration, cited from earlier work; for nutrient volume tolerance / satiation: 1 μmol/kg DB
[1] = Maximum tolerated dose / LD50 study, single oral gavage, 14-day observational period (Example 7); settings: both, Sprague Dawley, rat, in vivo
Procedure: (§1) The drugs were administered to Sprague Dawley rats with a 14-day observational period. Twenty-four Male Sprague Dawley (SD) rats and 24 female SD rats were purchased from Envigo at 8-10 weeks of age. The DA group had four dose levels (120, 360, 1000, and 2000 mg/kg, single administration by oral gavage), 3 rats per sex, 6 animals in total per dose level; and the DB group: four dose levels (120, 360, 1000, and 2000 mg/kg, single administration by oral gavage), 3 rats per sex, 6 animals in total per dose level. The estimated median lethal dose (LD50) was determined by a nonlinear regression [model: Y=100/(1+10^(LogEC50-X)), Hill slope=1.0) to calculate LD50.

Sprague Dawley rats = test: in vivo; settings: rat, po; for Mortality rate: both, 14 day
Procedure: as §1

[2] = system: human TAS2Rs (TAS2R 4, 8, 10, 13, 39, 43, 46, and 47); settings: cited from earlier work

CC[N+](CC)(CC(=O)Nc1c(C)cccc1C)Cc1ccccc1.O=C([O-])c1ccccc1 [DB, benzyl-[2-(2,6-dimethylanilino)-2-oxoethyl]-diethylazanium benzoate]
food intake (rodent obesity models): suppressed food intake
weight gain (rodent obesity models): inhibited weight gain
Mean cumulative food intake 0-2 h (male SD rats; single oral dose (DA 23.1 mg/kg, DB 26.8 mg/kg), 0-2 h, N = 15): 4.8 gram
Mean cumulative food intake 0-4 h (male SD rats; single oral dose (DA 23.1 mg/kg, DB 26.8 mg/kg), 0-4 h, N = 15): 7.7 gram
Mean cumulative food intake 0-6 h (male SD rats; single oral dose (DA 23.1 mg/kg, DB 26.8 mg/kg), 0-6 h, N = 15): 10.9 gram
Mean cumulative food intake 0-8 h (male SD rats; single oral dose (DA 23.1 mg/kg, DB 26.8 mg/kg), 0-8 h, N = 15): 13.8 gram
Mean cumulative food intake 0-24 h (male SD rats; single oral dose (DA 23.1 mg/kg, DB 26.8 mg/kg), 0-24 h, N = 15): 20.6 gram
cumulative food intake as compared with vehicle (male SD rats; single oral dose, all indicated time intervals): reduced cumulative food intake during all the indicated time intervals as compared with vehicle
gastric emptying rate (normal C57BL/6 mice): significantly inhibited gastric emptying rate
body weight gain as compared to vehicle treatment (male C57BL/6N DIO mice; DIO mice on high-fat diet, 26.8 mg/kg DB or 23.1 mg/kg DA BID): less body weight gain as compared to vehicle treatment
Mean food consumption per animal for 24-h interval, Day 0 (male C57BL/6N DIO mice; DIO mice, BID oral (DA 23.1 mg/kg, DB 26.8 mg/kg), Day 0): 2.5 gram
Mean food consumption per animal for 24-h interval, Day 7 (male C57BL/6N DIO mice; DIO mice, BID oral (DA 23.1 mg/kg, DB 26.8 mg/kg), Day 7): 1.8 gram
Mean food consumption per animal for 24-h interval, Day 14 (male C57BL/6N DIO mice; DIO mice, BID oral (DA 23.1 mg/kg, DB 26.8 mg/kg), Day 14): 2.6 gram
Mean food consumption per animal for 24-h interval, Day 21 (male C57BL/6N DIO mice; DIO mice, BID oral (DA 23.1 mg/kg, DB 26.8 mg/kg), Day 21): 2.9 gram
Mean food consumption per animal for 24-h interval, Day 28 (male C57BL/6N DIO mice; DIO mice, BID oral (DA 23.1 mg/kg, DB 26.8 mg/kg), Day 28): 2.5 gram
Mean food consumption per animal for 24-h interval, Day 35 (male C57BL/6N DIO mice; DIO mice, BID oral (DA 23.1 mg/kg, DB 26.8 mg/kg), Day 35): 2.5 gram
Mean food consumption per animal for 24-h interval, Day 42 (male C57BL/6N DIO mice; DIO mice, BID oral (DA 23.1 mg/kg, DB 26.8 mg/kg), Day 42): 2.0 gram
Mean food consumption per animal for 24-h interval, Day 49 (male C57BL/6N DIO mice; DIO mice, BID oral (DA 23.1 mg/kg, DB 26.8 mg/kg), Day 49): 2.4 gram
Mean food consumption per animal for 24-h interval, Day 56 (male C57BL/6N DIO mice; DIO mice, BID oral (DA 23.1 mg/kg, DB 26.8 mg/kg), Day 56): 2.5 gram
Mean normalized body weight (% of baseline), study day 0 (male C57BL/6N DIO mice; DIO mice, BID oral (DA 23.1 mg/kg, DB 26.8 mg/kg), day 0): 100.0 % of baseline
Mean normalized body weight (% of baseline), study day 4 (male C57BL/6N DIO mice; DIO mice, BID oral (DA 23.1 mg/kg, DB 26.8 mg/kg), day 4): 100.5 % of baseline
Mean normalized body weight (% of baseline), study day 7 (male C57BL/6N DIO mice; DIO mice, BID oral (DA 23.1 mg/kg, DB 26.8 mg/kg), day 7): 99.7 % of baseline
Mean normalized body weight (% of baseline), study day 9 (male C57BL/6N DIO mice; DIO mice, BID oral (DA 23.1 mg/kg, DB 26.8 mg/kg), day 9): 99.4 % of baseline
Mean normalized body weight (% of baseline), study day 11 (male C57BL/6N DIO mice; DIO mice, BID oral (DA 23.1 mg/kg, DB 26.8 mg/kg), day 11): 99.0 % of baseline
Mean normalized body weight (% of baseline), study day 14 (male C57BL/6N DIO mice; DIO mice, BID oral (DA 23.1 mg/kg, DB 26.8 mg/kg), day 14): 99.3 % of baseline
Mean normalized body weight (% of baseline), study day 16 (male C57BL/6N DIO mice; DIO mice, BID oral (DA 23.1 mg/kg, DB 26.8 mg/kg), day 16): 98.0 % of baseline
Mean normalized body weight (% of baseline), study day 18 (male C57BL/6N DIO mice; DIO mice, BID oral (DA 23.1 mg/kg, DB 26.8 mg/kg), day 18): 97.9 % of baseline
Mean normalized body weight (% of baseline), study day 21 (male C57BL/6N DIO mice; DIO mice, BID oral (DA 23.1 mg/kg, DB 26.8 mg/kg), day 21): 99.5 % of baseline
Mean normalized body weight (% of baseline), study day 23 (male C57BL/6N DIO mice; DIO mice, BID oral (DA 23.1 mg/kg, DB 26.8 mg/kg), day 23): 100.5 % of baseline
Mean normalized body weight (% of baseline), study day 25 (male C57BL/6N DIO mice; DIO mice, BID oral (DA 23.1 mg/kg, DB 26.8 mg/kg), day 25): 100.3 % of baseline
Mean normalized body weight (% of baseline), study day 28 (male C57BL/6N DIO mice; DIO mice, BID oral (DA 23.1 mg/kg, DB 26.8 mg/kg), day 28): 100.2 % of baseline
Mean normalized body weight (% of baseline), study day 30 (male C57BL/6N DIO mice; DIO mice, BID oral (DA 23.1 mg/kg, DB 26.8 mg/kg), day 30): 100.5 % of baseline
Mean normalized body weight (% of baseline), study day 32 (male C57BL/6N DIO mice; DIO mice, BID oral (DA 23.1 mg/kg, DB 26.8 mg/kg), day 32): 102.8 % of baseline
Mean normalized body weight (% of baseline), study day 34 (male C57BL/6N DIO mice; DIO mice, BID oral (DA 23.1 mg/kg, DB 26.8 mg/kg), day 34): 103.6 % of baseline
Mean normalized body weight (% of baseline), study day 36 (male C57BL/6N DIO mice; DIO mice, BID oral (DA 23.1 mg/kg, DB 26.8 mg/kg), day 36): 104.1 % of baseline
Mean normalized body weight (% of baseline), study day 39 (male C57BL/6N DIO mice; DIO mice, BID oral (DA 23.1 mg/kg, DB 26.8 mg/kg), day 39): 104.7 % of baseline
Mean normalized body weight (% of baseline), study day 41 (male C57BL/6N DIO mice; DIO mice, BID oral (DA 23.1 mg/kg, DB 26.8 mg/kg), day 41): 105.3 % of baseline
Mean normalized body weight (% of baseline), study day 46 (male C57BL/6N DIO mice; DIO mice, BID oral (DA 23.1 mg/kg, DB 26.8 mg/kg), day 46): 106.0 % of baseline
Mean normalized body weight (% of baseline), study day 49 (male C57BL/6N DIO mice; DIO mice, BID oral (DA 23.1 mg/kg, DB 26.8 mg/kg), day 49): 107.8 % of baseline
Mean normalized body weight (% of baseline), study day 51 (male C57BL/6N DIO mice; DIO mice, BID oral (DA 23.1 mg/kg, DB 26.8 mg/kg), day 51): 107.8 % of baseline
Mean normalized body weight (% of baseline), study day 53 (male C57BL/6N DIO mice; DIO mice, BID oral (DA 23.1 mg/kg, DB 26.8 mg/kg), day 53): 107.4 % of baseline
Mean normalized body weight (% of baseline), study day 56 (male C57BL/6N DIO mice; DIO mice, BID oral (DA 23.1 mg/kg, DB 26.8 mg/kg), day 56): 108.4 % of baseline
food consumption compared to vehicle-dosed mice (male C57BL/6N DIO mice; DIO mice, BID oral, 56-day treatment): Lower food consumption was also seen on Days 0, 7, 28, 35, 42 and 49
body weight as compared to vehicle (C57BL/6 DIO mice): induced a decrease in body weight
nutrient volume tolerance (healthy volunteers; listed as Denatonium benzoate): reduced nutrient volume tolerance
satiation (healthy volunteers; listed as Denatonium benzoate): increased satiation post meal
nutrient volume tolerance (healthy volunteers): decreased nutrient volume tolerance
satiation (healthy volunteers): increased satiation
hunger ratings (healthy volunteers): decreased hunger ratings
inter-digestive gastric motility (healthy volunteers): attenuated inter-digestive gastric motility
LD50 at 14 day [1]: 784 mg/kg
MTD at 14 day [1]: 360 mg/kg
Mortality rate (Sprague Dawley rats; 120 mg/kg): 0%
Mortality rate (Sprague Dawley rats; 360 mg/kg): 0%
Mortality rate (Sprague Dawley rats; 1000 mg/kg): 66.7%
Mortality rate (Sprague Dawley rats; 2000 mg/kg): 100%
No. of animals died within 24 h post dosing (Sprague Dawley rats; female, 120 mg/kg): 0
No. of animals died within 24 h post dosing (Sprague Dawley rats; female, 360 mg/kg): 0
No. of animals died within 24 h post dosing (Sprague Dawley rats; female, 1000 mg/kg): 3
No. of animals died within 24 h post dosing (Sprague Dawley rats; female, 2000 mg/kg): 3
No. of animals died within 24 h post dosing (Sprague Dawley rats; male, 120 mg/kg): 0
No. of animals died within 24 h post dosing (Sprague Dawley rats; male, 360 mg/kg): 0
No. of animals died within 24 h post dosing (Sprague Dawley rats; male, 1000 mg/kg): 1
No. of animals died within 24 h post dosing (Sprague Dawley rats; male, 2000 mg/kg): 3
activation of human TAS2Rs [2]: activates to varying degrees eight human TAS2Rs
